Laboratory results as given in patent publication US11578069B2, “Compounds for inhibition of α4 β7 integrin” (Gilead Sciences, Inc., priority 2019, dated 2023).

Legend:
[1] = target: T1, α4β7 integrin (Homo sapiens, UniProt P13612+P26010); experiment: α4β7 Integrin Cell Capture Assay; type: cell-based; conditions: capture of α4β7 integrin expressing RPM18866 cells on MadCAM-1 extracellular domain-coated plate
T1 construct: monitoring the capture of α4β7 integrin expressing cells; endogenous in cells; host or cells: RPMI8866
T1 sequence (P13612 34-1032): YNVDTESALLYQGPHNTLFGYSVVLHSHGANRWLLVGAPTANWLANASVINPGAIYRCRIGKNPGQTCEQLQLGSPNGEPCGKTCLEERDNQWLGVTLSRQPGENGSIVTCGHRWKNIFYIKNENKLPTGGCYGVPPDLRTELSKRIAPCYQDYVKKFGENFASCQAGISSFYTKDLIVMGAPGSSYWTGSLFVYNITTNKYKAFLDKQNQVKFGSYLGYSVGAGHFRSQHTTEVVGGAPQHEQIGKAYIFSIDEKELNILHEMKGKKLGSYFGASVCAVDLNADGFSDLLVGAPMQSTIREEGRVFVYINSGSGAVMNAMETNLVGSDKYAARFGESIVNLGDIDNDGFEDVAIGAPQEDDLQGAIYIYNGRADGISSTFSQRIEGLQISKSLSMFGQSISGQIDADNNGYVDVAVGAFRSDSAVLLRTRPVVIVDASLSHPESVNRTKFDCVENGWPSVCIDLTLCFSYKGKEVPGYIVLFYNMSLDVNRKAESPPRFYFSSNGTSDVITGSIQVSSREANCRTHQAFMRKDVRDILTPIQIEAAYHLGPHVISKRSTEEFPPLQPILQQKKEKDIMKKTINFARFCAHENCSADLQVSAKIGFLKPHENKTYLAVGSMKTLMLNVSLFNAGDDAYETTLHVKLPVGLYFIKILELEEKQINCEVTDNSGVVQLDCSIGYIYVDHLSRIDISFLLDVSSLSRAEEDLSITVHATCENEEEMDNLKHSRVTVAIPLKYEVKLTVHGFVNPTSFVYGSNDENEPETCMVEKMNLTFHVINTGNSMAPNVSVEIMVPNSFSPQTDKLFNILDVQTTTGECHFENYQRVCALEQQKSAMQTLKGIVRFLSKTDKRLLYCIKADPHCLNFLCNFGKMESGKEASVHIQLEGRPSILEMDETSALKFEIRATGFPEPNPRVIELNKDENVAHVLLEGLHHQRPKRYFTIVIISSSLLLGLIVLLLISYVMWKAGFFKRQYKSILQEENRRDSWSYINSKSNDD
T1 sequence (P26010 20-798): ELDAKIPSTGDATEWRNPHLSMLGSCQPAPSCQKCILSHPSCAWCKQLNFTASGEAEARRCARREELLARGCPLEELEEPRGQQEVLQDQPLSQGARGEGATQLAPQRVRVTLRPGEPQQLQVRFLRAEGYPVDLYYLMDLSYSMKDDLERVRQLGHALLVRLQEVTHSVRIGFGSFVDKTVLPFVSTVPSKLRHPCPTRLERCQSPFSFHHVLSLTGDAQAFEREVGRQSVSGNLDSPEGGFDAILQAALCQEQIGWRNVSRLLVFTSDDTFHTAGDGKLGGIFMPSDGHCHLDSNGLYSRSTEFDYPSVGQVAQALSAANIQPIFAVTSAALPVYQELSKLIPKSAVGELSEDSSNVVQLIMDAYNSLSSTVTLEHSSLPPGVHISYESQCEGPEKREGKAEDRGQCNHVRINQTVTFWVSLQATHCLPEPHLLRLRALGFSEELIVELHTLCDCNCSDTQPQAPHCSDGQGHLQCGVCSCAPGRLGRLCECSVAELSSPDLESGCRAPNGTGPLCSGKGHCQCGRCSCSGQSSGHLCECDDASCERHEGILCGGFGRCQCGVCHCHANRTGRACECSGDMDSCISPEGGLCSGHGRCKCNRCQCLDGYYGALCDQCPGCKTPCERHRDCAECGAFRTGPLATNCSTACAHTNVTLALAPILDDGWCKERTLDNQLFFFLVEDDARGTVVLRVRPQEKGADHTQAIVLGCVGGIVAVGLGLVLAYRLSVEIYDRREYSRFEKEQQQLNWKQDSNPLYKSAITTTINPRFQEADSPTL
Procedure: The potency of inhibitors in preventing α4β7 integrin interaction with MadCAM-1 was measured by monitoring the capture of α4β7 integrin expressing cells on a recombinant MadCAM-1 extracellular domain-coated plate.
384-well plates (Corning 3702) were coated with MadCAM-1 extracellular domain by dispensing 20 μL of MAdCAM-1 at 1.0 μg/mL per well and incubating overnight at 4° C. The plates were then washed with PBS and blocked with 3% BSA for 2 hours before being washed again.
(§1) RPM18866 cells were spun down and re-suspended in assay medium (DMEM+0.5% FBS+0.5 mM MnCl2) at a density of 0.5×10^6 cells/mL. The cells were then dispensed (60 μL/well) to a 384-well plate (Greiner 781280) that was previously spotted with 60 nL of test compound per well. The plates were incubated at 37° C. for 1 hour. 50 μL of cells were transferred to the blocked, MadCAM-1-coated plates and incubated for 30 minutes at 37° C. 10 μL of 12% glutaraldehyde containing Hoechst 33342 (0.06 mg/mL) was added to the cells (2% glutaraldehyde and 0.01 mg/mL final concentrations). The plates were incubated for 90 minutes at room temperature. The plates were then washed 3 times with 70 μL of PBS per well and imaged on a Cellomics ArrayScan instrument. The cells that were bound to the plate were counted and plotted against the compound concentration to determine the EC50 of the test compounds.

[2] = target: T2, α4β1 integrin (Homo sapiens, UniProt P05556+P13612); experiment: α4β1 Cell Capture Assay; type: cell-based; conditions: capture of α4β1 expressing Jurkat cells on VCAM-1 extracellular domain-coated plate
T2 construct: monitoring the capture of α4β1 expressing cells; endogenous in cells; host or cells: Jurkat
T2 sequence (P05556 21-798, one chain of several): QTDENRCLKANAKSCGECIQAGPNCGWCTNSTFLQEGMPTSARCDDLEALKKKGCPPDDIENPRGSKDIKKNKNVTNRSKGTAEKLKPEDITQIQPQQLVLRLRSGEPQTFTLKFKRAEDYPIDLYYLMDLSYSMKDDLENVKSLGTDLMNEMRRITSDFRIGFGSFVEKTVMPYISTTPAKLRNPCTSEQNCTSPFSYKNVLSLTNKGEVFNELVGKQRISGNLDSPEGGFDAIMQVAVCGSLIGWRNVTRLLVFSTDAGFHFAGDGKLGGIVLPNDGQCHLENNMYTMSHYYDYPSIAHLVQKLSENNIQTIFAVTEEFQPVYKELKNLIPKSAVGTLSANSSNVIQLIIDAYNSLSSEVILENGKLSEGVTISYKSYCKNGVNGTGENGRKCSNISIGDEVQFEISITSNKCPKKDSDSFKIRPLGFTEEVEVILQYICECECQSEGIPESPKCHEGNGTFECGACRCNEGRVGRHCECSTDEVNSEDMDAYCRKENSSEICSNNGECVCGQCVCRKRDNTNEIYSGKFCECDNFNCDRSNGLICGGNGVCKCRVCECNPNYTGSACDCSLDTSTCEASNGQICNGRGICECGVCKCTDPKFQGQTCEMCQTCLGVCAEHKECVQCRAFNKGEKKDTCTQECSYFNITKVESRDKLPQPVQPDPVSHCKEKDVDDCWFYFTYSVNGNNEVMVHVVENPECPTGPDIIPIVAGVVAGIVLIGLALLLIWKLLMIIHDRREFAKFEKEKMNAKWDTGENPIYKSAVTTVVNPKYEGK
Procedure: The potency of inhibitors in preventing α4β1 integrin interaction with VCAM-1 was measured by monitoring the capture of α4β1 expressing cells to a recombinant VCAM-1 extracellular domain-coated plate.
384-well plates (Corning 3702) were coated with VCAM-1 extracellular domain by dispensing 20 μL of VCAM-1 at 0.5 μg/ml per well and incubating overnight at 4° C. The plates were then washed with PBS and blocked with 3% BSA for 2 hours before being washed again.
as §1, with “Jurkat cells” for “RPM18866 cells”, “0.5×10^6 cells/ml.” for “0.5×10^6 cells/mL.”, “blocked, VCAM-1-coated” for “blocked, MadCAM-1-coated”, “10 μl” for “10 μL”, “0.01 mg/ml Hoechst 33342” for “0.01 mg/mL”

| SMILES | EC50 ([1]; Table 1) [nM] | EC50 ([2]; Table 1) [nM] | EC50 ([1]; Table 2) [nM] | EC50 ([2]; Table 2) [nM] |
| --- | --- | --- | --- | --- |
| CC[C@@H](Nc1cc(C)c(C(=O)N[C@@H](Cc2ccc(-n3c(=O)c4ccncc4n(C)c3=O)nc2)C(=O)O)c(F)c1)C(F)(F)F [Example 11, (S)-2-(2-fluoro-6-methyl-4-(((R)-1,1,1-trifluorobutan-2-yl)amino)benzamido)-3-(6-(1-methyl-2,4-dioxo-1,4-dihydropyrido[3,4-d]pyrimidin-3(2H)-yl)pyridin-3-yl)propanoic acid] | 0.5 | 30.1 | – | – |
| CC[C@@H](Nc1cc(F)c(C(=O)N[C@@H](Cc2ccc(-c3c(C)c4cc(F)ccc4n(C)c3=O)nc2)C(=O)O)c(F)c1)C(F)(F)F [Example 44] | – | – | 2.9 | 37.6 |
| Cc1cc(N2CCOC[C@@H]2C(F)(F)F)cc(F)c1C(=O)N[C@@H](Cc1ccc(-n2c(=O)c3c(n(C)c2=O)COCC3)cc1)C(=O)O [Example 63, (S)-2-(2-fluoro-6-methyl-4-((R)-3-(trifluoromethyl)morpholino)benzamido)-3-(4-(1-methyl-2,4-dioxo-1,2,4,5,6,8-hexahydro-3H-pyrano[3,4-d]pyrimidin-3-yl)phenyl)propanoic acid] | 0.1 | 3.7 | – | – |
| CC[C@@H](Nc1cc(F)c(C(=O)N[C@@H](Cc2ccc(-n3c(=O)c4cc(N(C)C)ccc4n(C)c3=O)cc2)C(=O)O)c(F)c1)C(F)(F)F [Example 33] | – | – | 2.5 | 105 |
| Cc1cc(N2CCOC[C@@H]2C(F)(F)F)cc(F)c1C(=O)N[C@@H](Cc1ccc(-c2nc(C)c(C)n(C)c2=O)c(Cl)c1)C(=O)O [Example 7, (S)-3-(3-chloro-4-(4,5,6-trimethyl-3-oxo-3,4-dihydropyrazin-2-yl)phenyl)-2-(2-fluoro-6-methyl-4-((R)-3-(trifluoromethyl)morpholino)benzamido)propanoic acid] | 0.5 | 15.3 | – | – |
| Cn1c2c(c(=O)n(-c3ccc(C[C@H](NC(=O)c4c(F)cc(N5CCOC[C@@H]5C(F)(F)F)cc4F)C(=O)O)cc3)c1=O)CCOC2 [Example 61, (S)-2-(2,6-difluoro-4-((R)-3-(trifluoromethyl)morpholino)benzamido)-3-(4-(1-methyl-2,4-dioxo-1,2,4,5,6,8-hexahydro-3H-pyrano[3,4-d]pyrimidin-3-yl)phenyl)propanoic acid] | 0.4 | 11.5 | – | – |
| CC[C@@H](Nc1cc(F)c(C(=O)N[C@@H](Cc2ccc(-c3c(C(F)(F)F)cc(C)n(C)c3=O)cc2)C(=O)O)c(F)c1)C(F)(F)F [Example 1, (S)-2-(2,6-difluoro-4-(((R)-1,1,1-trifluorobutan-2-yl)amino)benzamido)-3-(4-(1,6-dimethyl-2-oxo-4-(trifluoromethyl)-1,2-dihydropyridin-3-yl)phenyl)propanoic acid] | 1.4 | 10.3 | – | – |
| Cc1cc(C[C@H](NC(=O)c2c(F)cc(N3CCOC[C@@H]3C(F)(F)F)cc2F)C(=O)O)ccc1-c1c(C)n(C)c(=O)n(C)c1=O [Example 39] | – | – | 0.4 | 12.8 |
| Cc1cc(C[C@H](NC(=O)c2c(C)cc(N3CCOC[C@@H]3C(F)(F)F)cc2F)C(=O)O)ccc1-c1c(C(F)(F)F)cc(C)n(C)c1=O [Example 5, (S)-3-(4-(1,6-dimethyl-2-oxo-4-(trifluoromethyl)-1,2-dihydropyridin-3-yl)-3-methylphenyl)-2-(2-fluoro-6-methyl-4-((R)-3-(trifluoromethyl)morpholino)benzamido)propanoic acid] | 0.2 | 16.6 | – | – |

Second part, the molecule after the results:

| EC50 ([1]; Table 1) [nM] | EC50 ([2]; Table 1) [nM] | EC50 ([1]; Table 2) [nM] | EC50 ([2]; Table 2) [nM] | SMILES |
| --- | --- | --- | --- | --- |
| – | – | 0.14 | 5.2 | Cc1cc(N2CCOC[C@@H]2C(F)(F)F)cc(F)c1C(=O)N[C@@H](Cc1ccc(-n2c(=O)c3cc(C#N)ccc3n(C)c2=O)nc1)C(=O)O [Example 74] |
| – | – | 0.18 | 4 | Cc1cc(N2CCOC[C@@H]2C(F)(F)F)cc(F)c1C(=O)N[C@@H](Cc1ccc(-n2c(=O)c3c(C#N)cccc3n(C)c2=O)nc1)C(=O)O [Example 72] |
| – | – | 0.6 | 2.3 | Cc1cc(N2CCOC[C@@H]2C(F)(F)F)cc(F)c1C(=O)N[C@@H](Cc1ccc(-n2c(=O)c3ccncc3n(C)c2=O)c(C(F)(F)F)c1)C(=O)O (atropisomer, axis not shown) [Example 89] |
| 0.3 | 14.9 | – | – | Cc1cc(N2CCOC[C@@H]2C(F)(F)F)cc(F)c1C(=O)N[C@@H](Cc1ccc(-n2c(=O)c3c(n(C)c2=O)CCOC3)nc1)C(=O)O [Example 68, (S)-2-(2-fluoro-6-methyl-4-((R)-3-(trifluoromethyl)morpholino)benzamido)-3-(6-(1-methyl-2,4-dioxo-1,5,7,8-tetrahydro-2H-pyrano[4,3-d]pyrimidin-3(4H)-yl)pyridin-3-yl)propanoic acid] |
| – | – | 0.2 | 1.3 | Cc1cc(N2CCOC[C@@H]2C(F)(F)F)cc(F)c1C(=O)N[C@@H](Cc1ccc(-n2c(=O)c3ccncc3n(C)c2=O)c(OC(F)(F)F)c1)C(=O)O (atropisomer, axis not shown) [Example 92] |
| – | – | 0.9 | 19.7 | Cc1cc(N2CCOC[C@@H]2CC(F)(F)F)cc(F)c1C(=O)N[C@@H](Cc1ccc(-n2c(=O)c3ccncc3n(C)c2=O)nc1)C(=O)O [Example 87] |
